Reference: ChEMBL document CHEMBL4477239 (Bioorg Med Chem, 2016)

What was measured:
in vitro = details: human, Caco-2
Description: Apparent permeability from apical to basolateral side in Caco2 cells at 1 to 10 uM incubated for 90 mins by LC-MS/MS analysis

NCI-H1993 = test: Cytotoxicity against human NCI-H1993 cells assessed as growth inhibition after 72 hrs by CCK-8 assay; details: NCI-H1993, 72 h
Cytochrome P450 3A4 [1] = target: T1, Cytochrome P450 3A4 (Homo sapiens, UniProt P08684); test: Time-dependent inhibition of CYP3A4 in human liver microsomes at 10 uM using troleandomycin as […] preincubated with compound followed by NADPH addition by LC-MS/MS analysis; assay type: ADME
T1 sequence (P08684 whole entry): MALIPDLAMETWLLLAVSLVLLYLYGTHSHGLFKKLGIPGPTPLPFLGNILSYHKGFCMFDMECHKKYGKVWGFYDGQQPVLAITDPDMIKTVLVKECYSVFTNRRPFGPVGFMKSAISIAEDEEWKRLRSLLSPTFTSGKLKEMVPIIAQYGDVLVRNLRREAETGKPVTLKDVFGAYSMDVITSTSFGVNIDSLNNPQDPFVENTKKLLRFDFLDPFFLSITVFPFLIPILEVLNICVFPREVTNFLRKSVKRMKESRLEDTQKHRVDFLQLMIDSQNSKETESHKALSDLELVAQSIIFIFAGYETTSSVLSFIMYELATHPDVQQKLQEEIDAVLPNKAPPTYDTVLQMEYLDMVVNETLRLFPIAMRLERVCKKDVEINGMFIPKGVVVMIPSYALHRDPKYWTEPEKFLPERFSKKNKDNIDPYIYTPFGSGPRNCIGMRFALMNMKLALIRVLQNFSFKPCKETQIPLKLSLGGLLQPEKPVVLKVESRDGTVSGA

[2] = Intrinsic clearance in human liver microsomes assessed per mg of protein at 1 uM preincubated for 5 mins followed by NADPH addition measured after 5 to 30 mins by LC-MS/MS analysis; assay type: ADME, Microsome; details: read-out: CLH
Cytochrome P450 2C9 = Cytochrome P450 2C9 (Homo sapiens, UniProt P11712); test: Inhibition of CYP2C9 in human liver microsomes at 10 uM using sulfaphenazole as […] preincubated for 5 mins followed by NADPH addition measured after 20 mins by LC-MS/MS analysis; assay type: ADME
Cytochrome P450 2C9, sequence (P11712 whole entry): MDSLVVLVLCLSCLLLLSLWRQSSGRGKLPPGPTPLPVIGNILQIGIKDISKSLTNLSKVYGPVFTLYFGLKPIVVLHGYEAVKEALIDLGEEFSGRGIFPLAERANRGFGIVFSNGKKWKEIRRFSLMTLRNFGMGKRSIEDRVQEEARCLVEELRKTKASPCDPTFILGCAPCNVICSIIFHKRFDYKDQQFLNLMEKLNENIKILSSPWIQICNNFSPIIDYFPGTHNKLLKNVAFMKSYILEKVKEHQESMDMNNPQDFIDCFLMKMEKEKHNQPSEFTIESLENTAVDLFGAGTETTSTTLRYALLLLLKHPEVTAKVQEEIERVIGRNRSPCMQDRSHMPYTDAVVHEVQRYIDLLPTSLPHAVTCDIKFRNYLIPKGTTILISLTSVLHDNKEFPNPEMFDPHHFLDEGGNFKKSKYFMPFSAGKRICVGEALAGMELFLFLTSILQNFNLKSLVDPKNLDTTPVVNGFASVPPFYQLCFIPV

[3] = Intrinsic clearance in rat liver microsomes assessed per mg of protein at 1 uM preincubated for 5 mins followed by NADPH addition measured after 5 to 30 mins by LC-MS/MS analysis; assay type: ADME, Microsome; details: read-out: CLH
Cytochrome P450 2D6 [4] = target: T2, Cytochrome P450 2D6 (Homo sapiens, UniProt P10635); test: Time-dependent inhibition of CYP2D6 in human liver microsomes at 10 uM using paroxetine as […] preincubated with compound followed by NADPH addition by LC-MS/MS analysis; assay type: ADME
T2 sequence (P10635 whole entry): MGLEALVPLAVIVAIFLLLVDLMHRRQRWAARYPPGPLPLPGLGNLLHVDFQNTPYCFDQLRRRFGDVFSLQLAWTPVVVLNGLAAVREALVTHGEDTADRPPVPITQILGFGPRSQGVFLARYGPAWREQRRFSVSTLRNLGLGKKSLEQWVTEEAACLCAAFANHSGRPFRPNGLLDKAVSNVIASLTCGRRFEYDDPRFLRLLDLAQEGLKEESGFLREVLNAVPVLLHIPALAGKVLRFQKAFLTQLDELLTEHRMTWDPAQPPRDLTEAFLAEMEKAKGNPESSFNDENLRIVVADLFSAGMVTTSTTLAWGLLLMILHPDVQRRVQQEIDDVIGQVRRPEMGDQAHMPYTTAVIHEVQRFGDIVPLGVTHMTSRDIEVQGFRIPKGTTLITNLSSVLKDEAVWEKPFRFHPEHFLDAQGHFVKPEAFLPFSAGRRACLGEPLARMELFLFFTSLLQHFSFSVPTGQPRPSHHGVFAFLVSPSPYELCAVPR

[5] = target: Hepatocyte growth factor receptor (Homo sapiens, UniProt P08581)
Hepatocyte growth factor receptor, sequence (P08581 whole entry): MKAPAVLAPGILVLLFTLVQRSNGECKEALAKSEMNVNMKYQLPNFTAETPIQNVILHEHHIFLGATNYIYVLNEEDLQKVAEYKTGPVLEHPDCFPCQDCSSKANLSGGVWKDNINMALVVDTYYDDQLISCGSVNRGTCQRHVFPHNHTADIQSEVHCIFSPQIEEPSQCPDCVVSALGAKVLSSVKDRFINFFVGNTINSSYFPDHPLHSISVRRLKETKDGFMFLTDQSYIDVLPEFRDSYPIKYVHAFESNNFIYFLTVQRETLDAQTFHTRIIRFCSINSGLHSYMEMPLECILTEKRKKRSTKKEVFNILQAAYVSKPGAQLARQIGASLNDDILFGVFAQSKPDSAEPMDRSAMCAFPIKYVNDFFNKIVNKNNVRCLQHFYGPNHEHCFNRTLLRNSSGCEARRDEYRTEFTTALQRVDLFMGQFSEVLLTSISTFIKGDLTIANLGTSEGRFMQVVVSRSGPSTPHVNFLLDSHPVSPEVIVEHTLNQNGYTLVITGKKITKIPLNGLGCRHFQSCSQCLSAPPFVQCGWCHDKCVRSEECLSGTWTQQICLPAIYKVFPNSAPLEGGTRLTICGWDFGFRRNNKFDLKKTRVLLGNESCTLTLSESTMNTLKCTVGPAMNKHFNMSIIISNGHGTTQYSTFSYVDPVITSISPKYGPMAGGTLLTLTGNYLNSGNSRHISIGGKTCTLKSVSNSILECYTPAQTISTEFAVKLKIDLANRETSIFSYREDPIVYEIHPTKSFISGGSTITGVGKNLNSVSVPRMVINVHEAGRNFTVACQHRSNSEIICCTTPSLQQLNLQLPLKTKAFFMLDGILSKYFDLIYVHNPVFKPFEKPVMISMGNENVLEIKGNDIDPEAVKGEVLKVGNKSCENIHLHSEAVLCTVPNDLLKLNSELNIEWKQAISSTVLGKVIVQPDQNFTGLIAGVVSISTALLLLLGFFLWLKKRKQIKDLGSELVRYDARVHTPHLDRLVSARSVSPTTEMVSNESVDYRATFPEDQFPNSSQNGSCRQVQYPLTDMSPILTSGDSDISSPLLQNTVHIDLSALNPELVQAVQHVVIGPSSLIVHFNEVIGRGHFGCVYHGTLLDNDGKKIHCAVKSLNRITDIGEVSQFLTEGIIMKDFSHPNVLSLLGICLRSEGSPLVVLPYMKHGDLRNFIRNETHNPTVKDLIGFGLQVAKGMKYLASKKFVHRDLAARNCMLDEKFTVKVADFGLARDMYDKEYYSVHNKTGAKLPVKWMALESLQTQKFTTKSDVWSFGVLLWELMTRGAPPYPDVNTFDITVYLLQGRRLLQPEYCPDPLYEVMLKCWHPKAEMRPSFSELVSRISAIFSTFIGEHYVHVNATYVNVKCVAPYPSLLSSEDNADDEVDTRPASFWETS
Description: Inhibition of c-Met kinase (unknown origin) assessed as decrease in phosphorylation of TK substrate-biotin peptide preincubated for 5 to 10 mins followed by ATP addition measured after 30 mins by HTRF assay

Cytochrome P450 1A2 [6] = target: T3, Cytochrome P450 1A2 (Homo sapiens, UniProt P05177); test: Time-dependent inhibition of CYP1A2 in human liver microsomes at 10 uM using furafylline as […] preincubated with compound followed by NADPH addition by LC-MS/MS analysis; assay type: ADME
T3 sequence (P05177 whole entry): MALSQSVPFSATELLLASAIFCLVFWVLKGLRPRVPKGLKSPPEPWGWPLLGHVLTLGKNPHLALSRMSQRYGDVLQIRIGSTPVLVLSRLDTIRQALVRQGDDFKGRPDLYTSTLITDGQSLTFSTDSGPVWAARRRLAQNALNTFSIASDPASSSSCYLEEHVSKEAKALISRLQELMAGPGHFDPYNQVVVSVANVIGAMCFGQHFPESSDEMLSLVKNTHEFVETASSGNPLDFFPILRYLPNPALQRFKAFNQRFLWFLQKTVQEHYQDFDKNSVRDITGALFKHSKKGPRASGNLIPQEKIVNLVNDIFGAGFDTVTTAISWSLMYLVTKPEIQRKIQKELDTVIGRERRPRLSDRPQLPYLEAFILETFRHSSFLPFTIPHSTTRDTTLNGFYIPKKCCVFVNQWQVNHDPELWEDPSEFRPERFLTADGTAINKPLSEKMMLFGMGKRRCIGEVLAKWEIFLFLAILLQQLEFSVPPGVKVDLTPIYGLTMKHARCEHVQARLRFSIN

Cytochrome P450 2D6 [7] = target: T2, Cytochrome P450 2D6; test: Inhibition of CYP2D6 in human liver microsomes at 10 uM using quinidine as […] preincubated for 5 mins followed by NADPH addition measured after 20 mins by LC-MS/MS analysis; assay type: ADME
Cytochrome P450 2C19 = Cytochrome P450 2C19 (Homo sapiens, UniProt P33261); test: Inhibition of CYP2C19 in human liver microsomes at 10 uM using tranylcypromine as […] preincubated for 5 mins followed by NADPH addition measured after 20 mins by LC-MS/MS analysis; assay type: ADME
Cytochrome P450 2C19, sequence (P33261 whole entry): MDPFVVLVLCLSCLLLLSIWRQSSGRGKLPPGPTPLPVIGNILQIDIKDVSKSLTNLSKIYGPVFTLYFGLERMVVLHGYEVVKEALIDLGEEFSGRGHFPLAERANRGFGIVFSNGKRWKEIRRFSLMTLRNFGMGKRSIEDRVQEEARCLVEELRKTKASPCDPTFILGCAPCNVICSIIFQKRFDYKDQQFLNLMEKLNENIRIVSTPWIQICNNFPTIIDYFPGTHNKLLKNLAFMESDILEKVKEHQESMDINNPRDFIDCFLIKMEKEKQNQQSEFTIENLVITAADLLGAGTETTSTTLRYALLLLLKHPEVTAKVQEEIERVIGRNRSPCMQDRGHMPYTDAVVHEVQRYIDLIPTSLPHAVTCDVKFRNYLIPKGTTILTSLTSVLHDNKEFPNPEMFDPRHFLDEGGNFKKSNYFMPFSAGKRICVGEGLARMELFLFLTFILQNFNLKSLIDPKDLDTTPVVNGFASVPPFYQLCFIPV

[8] = Apparent permeability from basolateral to apical side in Caco2 cells at 1 to 10 uM incubated for 90 mins by LC-MS/MS analysis; assay type: ADME, cell-based; details: human, Caco-2
[9] = Efflux ratio of permeability from basolateral to apical side over apical to basolateral side in Caco2 cells at 1 to 10 uM incubated for 90 mins by LC-MS/MS analysis; assay type: ADME, cell-based; details: human, Caco-2
Cytochrome P450 3A4 [10] = target: T1, Cytochrome P450 3A4; test: Inhibition of CYP3A4 in human liver microsomes at 10 uM using ketoconazole as […] preincubated for 5 mins followed by NADPH addition measured after 20 mins by LC-MS/MS analysis; assay type: ADME
Cytochrome P450 1A2 [11] = target: T3, Cytochrome P450 1A2; test: Inhibition of CYP1A2 in human liver microsomes at 10 uM using naphthoflavone as […] preincubated for 5 mins followed by NADPH addition measured after 20 mins by LC-MS/MS analysis; assay type: ADME

O=C1OC2(c3ccc([O-])cc3Oc3cc([O-])ccc32)c2ccccc21.[Na+].[Na+]
Papp A→B at 1.5 h, 10 µM (in vitro): 2.72 ×10⁻⁶ cm/s

CC(c1c(F)cc2ncccc2c1F)n1cnc2ncc(-c3cnn(CCO)c3)nc21 (stereo unspecified)
IC50 (NCI-H1993): 83.7 nM
inhibition (INH) (Cytochrome P450 3A4 [1]): Not Active
microsomal CLint at 1 µM [2]: 2 µL/min/mg
inhibition (INH) (Cytochrome P450 2C9): Active
microsomal CLint at 1 µM [3]: 10 µL/min/mg
inhibition (INH) (Cytochrome P450 2D6 [4]): Not Active
IC50 [5]: 1 nM
inhibition (INH) (Cytochrome P450 1A2 [6]): Not Active

CC(c1cc(F)c2ncccc2c1)n1cnc2ncc(-c3ccccc3)nc21 (stereo unspecified)
IC50 (NCI-H1993): > 10000 nM
IC50 [5]: 155 nM

C[C@H](c1cc2cccnc2cc1F)n1cnc2ncc(-c3ccc(C(N)=O)c(F)c3)nc21
IC50 (NCI-H1993): 329 nM
IC50 [5]: 2.79 nM

Cc1c(C(C)n2cnc3ncc(-c4ccncc4)nc32)ccc2ncccc12 (stereo unspecified)
IC50 (NCI-H1993): 950 nM
IC50 [5]: 4.4 nM

CC(c1c(F)cc2ncccc2c1F)n1cnc2ncc(-c3cnc4ccccc4c3)nc21 (stereo unspecified)
IC50 (NCI-H1993): 46.1 nM
inhibition (INH) (Cytochrome P450 3A4 [1]): Active
inhibition (INH) (Cytochrome P450 2D6 [7]): Active
microsomal CLint at 1 µM [2]: 51 µL/min/mg
inhibition (INH) (Cytochrome P450 2C9): Active
inhibition (INH) (Cytochrome P450 2C19): Active
microsomal CLint at 1 µM [3]: 275 µL/min/mg
inhibition (INH) (Cytochrome P450 2D6 [4]): Active
IC50 [5]: 1.3 nM
inhibition (INH) (Cytochrome P450 1A2 [6]): Active

CCC(c1cc2cccnc2cc1F)n1cnc2ncc(-c3ccc(C(N)=O)c(F)c3)nc21 (stereo unspecified)
IC50 (NCI-H1993): 226 nM
IC50 [5]: 2.5 nM

Cc1c(C(C)n2cnc3ncc(-c4cnc5ccccc5c4)nc32)ccc2ncccc12 (stereo unspecified)
IC50 (NCI-H1993): 450 nM
IC50 [5]: 4.9 nM

CC(c1c(F)cc2ncccc2c1F)n1cnc2ncc(-c3cnn(C)c3)nc21 (stereo unspecified)
IC50 (NCI-H1993): 35.5 nM
inhibition (INH) (Cytochrome P450 3A4 [1]): Not Active
microsomal CLint at 1 µM [2]: 11 µL/min/mg
inhibition (INH) (Cytochrome P450 2C9): Active
inhibition (INH) (Cytochrome P450 2C19): Active
microsomal CLint at 1 µM [3]: 63 µL/min/mg
inhibition (INH) (Cytochrome P450 2D6 [4]): Not Active
IC50 [5]: 1 nM
inhibition (INH) (Cytochrome P450 1A2 [6]): Not Active

CC(c1cc2cccnc2cc1F)n1cnc2ncc(-c3cnn(C)c3)nc21 (stereo unspecified)
Papp B→A at 1.5 h [8]: 40.1 ×10⁻⁶ cm/s
IC50 (NCI-H1993): 31.3 nM
inhibition (INH) (Cytochrome P450 3A4 [1]): Not Active
inhibition (INH) (Cytochrome P450 2D6 [7]): Not Active
microsomal CLint at 1 µM [2]: 9 µL/min/mg
inhibition (INH) (Cytochrome P450 2C9): Not Active
efflux ratio at 1.5 h [9]: 1.02
inhibition (INH) (Cytochrome P450 2C19): Not Active
microsomal CLint at 1 µM [3]: 18 µL/min/mg
inhibition (INH) (Cytochrome P450 3A4 [10]): Not Active
inhibition (INH) (Cytochrome P450 2D6 [4]): Not Active
Papp A→B at 1.5 h, 10 µM (in vitro): 39.3 ×10⁻⁶ cm/s
IC50 [5]: 1.6 nM
inhibition (INH) (Cytochrome P450 1A2 [6]): Not Active
inhibition (INH) (Cytochrome P450 1A2 [11]): Not Active

CNC(=O)c1ccc(-c2cnc3ncn(C(C)c4cc5cccnc5cc4F)c3n2)cc1F (stereo unspecified)
Papp B→A at 1.5 h [8]: 39.5 ×10⁻⁶ cm/s
IC50 (NCI-H1993): 32.7 nM
inhibition (INH) (Cytochrome P450 3A4 [1]): Active
inhibition (INH) (Cytochrome P450 2D6 [7]): Active
microsomal CLint at 1 µM [2]: 16 µL/min/mg
inhibition (INH) (Cytochrome P450 2C9): Active
efflux ratio at 1.5 h [9]: 0.99
inhibition (INH) (Cytochrome P450 2C19): Active
microsomal CLint at 1 µM [3]: 85 µL/min/mg
inhibition (INH) (Cytochrome P450 3A4 [10]): Active
Papp A→B at 1.5 h, 10 µM (in vitro): 39.8 ×10⁻⁶ cm/s
IC50 [5]: 2.3 nM

COC(=O)c1ccc(-c2cnc3ncn(C(C)c4c(F)cc5ncccc5c4F)c3n2)cc1F (stereo unspecified)
IC50 (NCI-H1993): 29.4 nM
inhibition (INH) (Cytochrome P450 3A4 [1]): Not Active
microsomal CLint at 1 µM [2]: 290 µL/min/mg
inhibition (INH) (Cytochrome P450 2C9): Active
microsomal CLint at 1 µM [3]: 179 µL/min/mg
inhibition (INH) (Cytochrome P450 2D6 [4]): Not Active
IC50 [5]: 4.9 nM
inhibition (INH) (Cytochrome P450 1A2 [6]): Not Active

CCC(c1ccc2ncccc2c1F)n1cnc2ncc(-c3ccc(C(N)=O)c(F)c3)nc21 (stereo unspecified)
IC50 (NCI-H1993): 665 nM
IC50 [5]: 1.6 nM

CC(c1c(F)cc2ncccc2c1F)n1cnc2ncc(-c3ccccc3)nc21 (stereo unspecified)
IC50 (NCI-H1993): 514 nM
IC50 [5]: 1.8 nM

CC(c1cc2cccnc2cc1F)n1cnc2ncc(-c3cnc4ccccc4c3)nc21 (stereo unspecified)
IC50 (NCI-H1993): 109 nM
IC50 [5]: 3.4 nM

C[C@@H](c1cc2cccnc2cc1F)n1cnc2ncc(-c3ccc(C(N)=O)c(F)c3)nc21
Papp B→A at 1.5 h [8]: 47.9 ×10⁻⁶ cm/s
IC50 (NCI-H1993): 11.8 nM
inhibition (INH) (Cytochrome P450 3A4 [1]): Not Active
microsomal CLint at 1 µM [2]: 23 µL/min/mg
inhibition (INH) (Cytochrome P450 2C9): Active
efflux ratio at 1.5 h [9]: 1.1
microsomal CLint at 1 µM [3]: 131 µL/min/mg
inhibition (INH) (Cytochrome P450 3A4 [10]): Active
Papp A→B at 1.5 h, 10 µM (in vitro): 43.7 ×10⁻⁶ cm/s
IC50 [5]: 1.32 nM

CC(c1c(F)cc2ncccc2c1F)n1cnc2ncc(-c3ccncc3)nc21 (stereo unspecified)
IC50 (NCI-H1993): 162 nM
inhibition (INH) (Cytochrome P450 3A4 [1]): Not Active
microsomal CLint at 1 µM [2]: 14 µL/min/mg
inhibition (INH) (Cytochrome P450 2C9): Active
inhibition (INH) (Cytochrome P450 2C19): Active
microsomal CLint at 1 µM [3]: 77 µL/min/mg
inhibition (INH) (Cytochrome P450 3A4 [10]): Active
inhibition (INH) (Cytochrome P450 2D6 [4]): Not Active
IC50 [5]: 1.6 nM
inhibition (INH) (Cytochrome P450 1A2 [6]): Not Active

COC(=O)c1ccc(-c2cnc3ncn(C(C)c4cc5cccnc5cc4F)c3n2)cc1F (stereo unspecified)
IC50 (NCI-H1993): 60.2 nM
inhibition (INH) (Cytochrome P450 3A4 [1]): Not Active
microsomal CLint at 1 µM [2]: 73 µL/min/mg
inhibition (INH) (Cytochrome P450 2C9): Active
microsomal CLint at 1 µM [3]: 125 µL/min/mg
inhibition (INH) (Cytochrome P450 2D6 [4]): Not Active
IC50 [5]: 2.9 nM
inhibition (INH) (Cytochrome P450 1A2 [6]): Not Active

CC(c1cc2cccnc2cc1F)n1cnc2ncc(-c3ccc(C(N)=O)c(F)c3)nc21 (stereo unspecified)
Papp B→A at 1.5 h [8]: 81.4 ×10⁻⁶ cm/s
IC50 (NCI-H1993): 19.5 nM
inhibition (INH) (Cytochrome P450 3A4 [1]): Not Active
microsomal CLint at 1 µM [2]: 14 µL/min/mg
inhibition (INH) (Cytochrome P450 2C9): Active
efflux ratio at 1.5 h [9]: 0.99
microsomal CLint at 1 µM [3]: 85 µL/min/mg
inhibition (INH) (Cytochrome P450 2D6 [4]): Not Active
Papp A→B at 1.5 h, 10 µM (in vitro): 82.3 ×10⁻⁶ cm/s
IC50 [5]: 1.7 nM
inhibition (INH) (Cytochrome P450 1A2 [6]): Not Active

CC(c1cc2cccnc2cc1F)n1cnc2ncc(-c3ccccc3)nc21 (stereo unspecified)
IC50 (NCI-H1993): 570 nM
IC50 [5]: 4.6 nM

CC(c1cc(F)c2ncccc2c1)n1cnc2ncc(-c3cnc4ccccc4c3)nc21 (stereo unspecified)
IC50 (NCI-H1993): > 10000 nM
IC50 [5]: 134 nM

CC(=O)O[C@H]1C(=O)[C@@]2(C)[C@H]([C@H](OC(=O)c3ccccc3)[C@]3(O)C[C@H](OC(=O)[C@H](O)[C@@H](NC(=O)c4ccccc4)c4ccccc4)C(C)=C1C3(C)C)[C@]1(OC(C)=O)CO[C@@H]1C[C@@H]2O [PACLITAXEL]
Papp B→A at 1.5 h [8]: 3.3 ×10⁻⁶ cm/s
efflux ratio at 1.5 h [9]: 2.27
Papp A→B at 1.5 h, 10 µM (in vitro): 1.46 ×10⁻⁶ cm/s

CC(C)NCC(O)COc1cccc2ccccc12 (stereo unspecified) [PROPRANOLOL]
Papp A→B at 1.5 h, 10 µM (in vitro): 21.5 ×10⁻⁶ cm/s
